In ChEMBL document CHEMBL5291721, “A preclinical secondary pharmacology resource illuminates target-adverse drug reaction associations of marketed drugs” (Nat Commun, 2023):

Columns and labels:
[1] = molecular target: T1, Muscarinic acetylcholine receptor M1 (Homo sapiens, UniProt P11229); type: functional, cell-based
T1 sequence (P11229 whole entry): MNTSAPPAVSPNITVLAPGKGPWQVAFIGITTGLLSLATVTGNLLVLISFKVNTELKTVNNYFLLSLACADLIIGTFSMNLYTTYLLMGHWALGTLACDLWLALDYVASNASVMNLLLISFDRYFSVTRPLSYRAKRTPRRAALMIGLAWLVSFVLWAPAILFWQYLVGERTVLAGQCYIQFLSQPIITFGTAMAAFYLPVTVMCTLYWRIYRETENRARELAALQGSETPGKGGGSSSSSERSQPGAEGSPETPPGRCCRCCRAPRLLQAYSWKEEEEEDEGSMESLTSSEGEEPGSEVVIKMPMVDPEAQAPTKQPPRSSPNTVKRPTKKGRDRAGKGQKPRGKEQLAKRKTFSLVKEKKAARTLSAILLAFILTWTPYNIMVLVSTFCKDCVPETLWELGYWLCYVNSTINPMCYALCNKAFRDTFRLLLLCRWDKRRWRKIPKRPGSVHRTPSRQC

[2] = molecular target: Gamma-aminobutyric acid receptor subunit alpha-1 (Rattus norvegicus, UniProt P62813)
Chain of Gamma-aminobutyric acid receptor subunit alpha-1 (P62813 whole entry): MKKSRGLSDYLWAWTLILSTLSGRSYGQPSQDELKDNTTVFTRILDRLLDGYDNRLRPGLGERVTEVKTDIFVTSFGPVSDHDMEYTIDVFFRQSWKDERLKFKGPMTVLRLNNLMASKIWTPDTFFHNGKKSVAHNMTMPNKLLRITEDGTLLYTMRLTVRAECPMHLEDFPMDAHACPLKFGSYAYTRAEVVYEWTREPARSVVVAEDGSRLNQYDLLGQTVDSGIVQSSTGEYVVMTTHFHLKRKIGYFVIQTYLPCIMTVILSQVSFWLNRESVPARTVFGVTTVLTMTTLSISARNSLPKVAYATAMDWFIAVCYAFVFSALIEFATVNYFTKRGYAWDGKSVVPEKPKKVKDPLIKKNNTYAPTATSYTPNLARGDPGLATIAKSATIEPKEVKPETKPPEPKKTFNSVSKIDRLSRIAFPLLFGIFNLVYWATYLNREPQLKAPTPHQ

[3] = molecular target: Sodium channel protein type 5 subunit alpha (Homo sapiens, UniProt Q14524); type: functional, cell-based
Chain of Sodium channel protein type 5 subunit alpha (Q14524 whole entry): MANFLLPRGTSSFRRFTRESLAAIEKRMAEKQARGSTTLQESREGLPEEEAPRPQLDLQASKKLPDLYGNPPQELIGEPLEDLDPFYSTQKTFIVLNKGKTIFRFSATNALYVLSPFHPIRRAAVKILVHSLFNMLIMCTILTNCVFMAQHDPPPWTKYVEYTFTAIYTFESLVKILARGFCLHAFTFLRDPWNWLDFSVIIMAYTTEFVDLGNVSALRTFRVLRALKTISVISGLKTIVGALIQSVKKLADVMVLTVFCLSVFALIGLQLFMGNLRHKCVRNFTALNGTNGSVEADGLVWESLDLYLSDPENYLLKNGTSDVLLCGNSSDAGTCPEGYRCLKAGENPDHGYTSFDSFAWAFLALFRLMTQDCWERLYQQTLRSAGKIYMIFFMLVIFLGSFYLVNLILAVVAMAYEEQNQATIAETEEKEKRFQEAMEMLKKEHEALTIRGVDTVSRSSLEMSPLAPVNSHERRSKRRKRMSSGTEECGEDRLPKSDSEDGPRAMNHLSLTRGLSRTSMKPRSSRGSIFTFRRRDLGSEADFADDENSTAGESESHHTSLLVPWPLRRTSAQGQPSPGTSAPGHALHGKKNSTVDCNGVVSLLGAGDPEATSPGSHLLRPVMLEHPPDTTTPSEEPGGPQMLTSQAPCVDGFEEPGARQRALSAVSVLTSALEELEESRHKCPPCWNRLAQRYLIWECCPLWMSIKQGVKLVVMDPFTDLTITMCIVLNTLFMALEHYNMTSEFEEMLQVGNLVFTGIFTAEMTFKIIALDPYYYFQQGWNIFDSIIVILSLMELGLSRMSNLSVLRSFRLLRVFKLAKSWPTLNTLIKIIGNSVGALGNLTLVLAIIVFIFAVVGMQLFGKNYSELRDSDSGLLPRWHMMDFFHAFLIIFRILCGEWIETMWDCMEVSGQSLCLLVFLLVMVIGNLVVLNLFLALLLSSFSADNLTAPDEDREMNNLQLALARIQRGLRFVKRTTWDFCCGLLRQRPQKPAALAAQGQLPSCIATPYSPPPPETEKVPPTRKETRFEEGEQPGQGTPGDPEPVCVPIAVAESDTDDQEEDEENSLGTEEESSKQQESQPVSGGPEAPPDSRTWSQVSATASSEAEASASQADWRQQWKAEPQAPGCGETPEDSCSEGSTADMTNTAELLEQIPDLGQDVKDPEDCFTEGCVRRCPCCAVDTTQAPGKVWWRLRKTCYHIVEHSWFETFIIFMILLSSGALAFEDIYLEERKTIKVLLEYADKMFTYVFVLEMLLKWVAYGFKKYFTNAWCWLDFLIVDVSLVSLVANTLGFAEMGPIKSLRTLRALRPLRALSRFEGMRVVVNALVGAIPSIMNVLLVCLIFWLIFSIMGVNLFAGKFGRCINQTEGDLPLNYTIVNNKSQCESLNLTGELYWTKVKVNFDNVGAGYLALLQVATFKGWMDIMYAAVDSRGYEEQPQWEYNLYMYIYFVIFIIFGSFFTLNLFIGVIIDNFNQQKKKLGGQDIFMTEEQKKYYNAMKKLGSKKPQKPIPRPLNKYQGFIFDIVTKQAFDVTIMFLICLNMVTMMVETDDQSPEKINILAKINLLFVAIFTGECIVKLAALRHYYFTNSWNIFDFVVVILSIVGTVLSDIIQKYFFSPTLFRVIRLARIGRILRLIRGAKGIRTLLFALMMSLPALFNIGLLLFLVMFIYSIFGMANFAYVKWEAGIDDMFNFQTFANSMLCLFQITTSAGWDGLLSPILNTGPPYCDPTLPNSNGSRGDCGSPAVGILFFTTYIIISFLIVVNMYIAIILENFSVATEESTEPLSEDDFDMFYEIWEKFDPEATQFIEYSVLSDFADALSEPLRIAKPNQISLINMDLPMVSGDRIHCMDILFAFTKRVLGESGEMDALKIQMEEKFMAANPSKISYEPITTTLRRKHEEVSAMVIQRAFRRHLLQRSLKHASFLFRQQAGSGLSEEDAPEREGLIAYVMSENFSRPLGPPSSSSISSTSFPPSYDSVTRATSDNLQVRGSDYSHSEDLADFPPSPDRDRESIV

[4] = molecular target: T2, Corticotropin-releasing factor receptor 1 (Homo sapiens, UniProt P34998)
T2 sequence (P34998 whole entry): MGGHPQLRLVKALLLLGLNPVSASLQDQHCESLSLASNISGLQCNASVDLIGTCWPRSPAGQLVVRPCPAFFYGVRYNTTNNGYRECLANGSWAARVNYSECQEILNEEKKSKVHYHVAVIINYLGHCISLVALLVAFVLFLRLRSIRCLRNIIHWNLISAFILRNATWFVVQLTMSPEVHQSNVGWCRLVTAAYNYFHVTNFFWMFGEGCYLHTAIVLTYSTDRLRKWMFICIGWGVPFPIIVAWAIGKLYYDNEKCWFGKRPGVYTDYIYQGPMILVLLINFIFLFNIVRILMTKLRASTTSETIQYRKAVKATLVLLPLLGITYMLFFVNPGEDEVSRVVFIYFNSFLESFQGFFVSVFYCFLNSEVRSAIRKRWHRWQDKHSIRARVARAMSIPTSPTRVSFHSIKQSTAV

[5] = molecular target: Neurotensin receptor type 1 (Homo sapiens, UniProt P30989)
Chain of Neurotensin receptor type 1 (P30989 whole entry): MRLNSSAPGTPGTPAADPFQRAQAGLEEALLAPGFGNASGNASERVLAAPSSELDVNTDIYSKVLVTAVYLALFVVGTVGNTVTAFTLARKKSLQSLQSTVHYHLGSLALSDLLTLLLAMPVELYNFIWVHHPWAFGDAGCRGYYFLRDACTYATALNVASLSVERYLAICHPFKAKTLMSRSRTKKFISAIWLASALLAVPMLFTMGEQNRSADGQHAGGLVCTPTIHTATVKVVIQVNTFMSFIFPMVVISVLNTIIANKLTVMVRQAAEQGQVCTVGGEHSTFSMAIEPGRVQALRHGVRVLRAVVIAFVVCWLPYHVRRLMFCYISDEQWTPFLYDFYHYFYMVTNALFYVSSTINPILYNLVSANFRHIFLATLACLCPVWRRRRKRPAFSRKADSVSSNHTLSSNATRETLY

Progesterone receptor = molecular target: T3, Progesterone receptor (Homo sapiens, UniProt P06401)
T3 sequence (P06401 whole entry): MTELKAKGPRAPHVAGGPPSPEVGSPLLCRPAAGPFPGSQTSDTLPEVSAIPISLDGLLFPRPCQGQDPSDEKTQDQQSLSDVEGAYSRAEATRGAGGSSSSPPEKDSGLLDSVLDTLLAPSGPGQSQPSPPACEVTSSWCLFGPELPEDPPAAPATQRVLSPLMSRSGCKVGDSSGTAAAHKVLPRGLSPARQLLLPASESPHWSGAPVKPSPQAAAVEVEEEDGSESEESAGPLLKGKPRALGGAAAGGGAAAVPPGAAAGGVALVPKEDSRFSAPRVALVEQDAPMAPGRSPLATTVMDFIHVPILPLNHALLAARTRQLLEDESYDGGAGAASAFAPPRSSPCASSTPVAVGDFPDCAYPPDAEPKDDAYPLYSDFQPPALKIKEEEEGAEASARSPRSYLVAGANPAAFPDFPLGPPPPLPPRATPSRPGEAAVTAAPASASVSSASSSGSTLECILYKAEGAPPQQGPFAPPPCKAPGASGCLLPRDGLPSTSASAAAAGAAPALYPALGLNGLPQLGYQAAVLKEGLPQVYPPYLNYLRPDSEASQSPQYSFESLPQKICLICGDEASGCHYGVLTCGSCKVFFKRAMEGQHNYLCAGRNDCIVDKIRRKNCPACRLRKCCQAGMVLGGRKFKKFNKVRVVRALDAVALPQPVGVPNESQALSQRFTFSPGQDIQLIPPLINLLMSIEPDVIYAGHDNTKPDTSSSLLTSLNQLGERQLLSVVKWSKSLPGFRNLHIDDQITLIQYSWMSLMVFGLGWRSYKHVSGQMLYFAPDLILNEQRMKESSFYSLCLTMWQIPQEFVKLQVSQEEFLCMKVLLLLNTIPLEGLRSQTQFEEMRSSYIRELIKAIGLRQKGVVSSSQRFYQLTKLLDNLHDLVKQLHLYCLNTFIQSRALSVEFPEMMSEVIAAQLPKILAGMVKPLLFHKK

D(1A) dopamine receptor = D(1A) dopamine receptor (Homo sapiens, UniProt P21728)
Chain of D(1A) dopamine receptor (P21728 whole entry): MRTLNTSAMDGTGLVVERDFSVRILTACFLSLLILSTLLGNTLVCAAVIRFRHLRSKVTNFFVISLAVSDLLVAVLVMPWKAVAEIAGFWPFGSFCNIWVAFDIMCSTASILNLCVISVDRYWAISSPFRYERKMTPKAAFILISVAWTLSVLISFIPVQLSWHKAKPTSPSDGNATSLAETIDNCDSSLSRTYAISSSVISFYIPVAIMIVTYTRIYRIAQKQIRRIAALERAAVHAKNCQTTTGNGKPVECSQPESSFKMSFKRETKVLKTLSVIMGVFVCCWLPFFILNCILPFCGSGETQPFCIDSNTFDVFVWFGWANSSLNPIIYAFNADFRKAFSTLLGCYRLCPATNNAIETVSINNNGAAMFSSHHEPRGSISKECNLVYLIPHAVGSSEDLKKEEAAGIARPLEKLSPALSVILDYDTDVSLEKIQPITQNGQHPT

[6] = molecular target: T4, Alpha-1A adrenergic receptor (Homo sapiens, UniProt P35348)
T4 sequence (P35348 whole entry): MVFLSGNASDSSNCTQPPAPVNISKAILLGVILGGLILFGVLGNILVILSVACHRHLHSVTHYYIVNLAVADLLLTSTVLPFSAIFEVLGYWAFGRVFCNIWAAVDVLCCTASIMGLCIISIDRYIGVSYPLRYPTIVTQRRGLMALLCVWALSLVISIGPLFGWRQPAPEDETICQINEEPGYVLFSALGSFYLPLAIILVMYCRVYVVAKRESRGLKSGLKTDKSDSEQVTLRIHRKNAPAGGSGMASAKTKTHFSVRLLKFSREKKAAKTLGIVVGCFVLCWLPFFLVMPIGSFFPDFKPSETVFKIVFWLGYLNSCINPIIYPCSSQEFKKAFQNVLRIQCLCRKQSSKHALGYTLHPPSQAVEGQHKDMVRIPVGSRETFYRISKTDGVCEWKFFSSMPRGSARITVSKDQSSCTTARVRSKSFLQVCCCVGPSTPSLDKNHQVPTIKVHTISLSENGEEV

[7] = molecular target: Beta-3 adrenergic receptor (Homo sapiens, UniProt P13945)
Chain of Beta-3 adrenergic receptor (P13945 whole entry): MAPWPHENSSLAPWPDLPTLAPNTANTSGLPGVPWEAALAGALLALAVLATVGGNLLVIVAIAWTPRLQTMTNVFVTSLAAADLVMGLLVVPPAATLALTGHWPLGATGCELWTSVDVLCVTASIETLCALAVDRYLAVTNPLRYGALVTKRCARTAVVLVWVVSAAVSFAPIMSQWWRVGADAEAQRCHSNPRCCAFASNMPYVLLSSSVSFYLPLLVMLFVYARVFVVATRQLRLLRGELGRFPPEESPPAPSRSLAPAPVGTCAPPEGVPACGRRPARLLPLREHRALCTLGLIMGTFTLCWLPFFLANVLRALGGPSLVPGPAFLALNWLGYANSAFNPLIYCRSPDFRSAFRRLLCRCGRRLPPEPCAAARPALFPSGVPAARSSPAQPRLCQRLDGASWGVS

[8] = molecular target: 5-hydroxytryptamine receptor 7 (Homo sapiens, UniProt P34969)
Chain of 5-hydroxytryptamine receptor 7 (P34969 whole entry): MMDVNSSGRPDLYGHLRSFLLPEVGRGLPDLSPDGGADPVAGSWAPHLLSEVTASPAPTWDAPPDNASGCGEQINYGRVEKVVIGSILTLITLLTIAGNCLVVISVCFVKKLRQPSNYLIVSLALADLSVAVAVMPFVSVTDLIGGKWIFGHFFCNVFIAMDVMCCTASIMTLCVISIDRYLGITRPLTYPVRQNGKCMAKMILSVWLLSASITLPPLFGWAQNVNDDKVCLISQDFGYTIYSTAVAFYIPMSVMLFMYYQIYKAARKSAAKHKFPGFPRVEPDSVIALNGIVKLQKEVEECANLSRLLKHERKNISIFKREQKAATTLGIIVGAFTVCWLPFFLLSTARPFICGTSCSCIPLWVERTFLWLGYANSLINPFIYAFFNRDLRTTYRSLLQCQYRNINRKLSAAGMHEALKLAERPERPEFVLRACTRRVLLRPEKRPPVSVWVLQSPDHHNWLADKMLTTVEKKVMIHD
Note: assay procedure not described here.

O=C1c2c(O)c(=O)ccn2N([C@@H]2c3ccccc3SCc3c2ccc(F)c3F)[C@@H]2COCCN12 [BALOXAVIR]
AC50 [1]: > 30 µM
AC50 [2]: > 30 µM
AC50 [3]: > 50 µM

OCc1cc([C@@H](O)CNCCCCCCOCCOCc2c(Cl)cccc2Cl)ccc1O [VILANTEROL]
AC50 [3]: 5 µM

CC(C)NCC(O)COc1ccc(COCCOC(C)C)cc1 (stereo not drawn) [BISOPROLOL]
AC50 [4]: > 30 µM
AC50 [5]: > 30 µM
AC50 (Progesterone receptor): > 30 µM
AC50 [3]: > 30 µM
AC50 (D(1A) dopamine receptor): > 10 µM
AC50 [6]: > 10 µM

O=C(COc1ccc(Cl)cc1)N1CCN(Cc2ccc3c(c2)OCO3)CC1 [FIPEXIDE]
AC50 [1]: 6.27 µM
AC50 [3]: > 50 µM

C#C[C@]1(O)CC[C@H]2[C@@H]3CCc4cc(O)ccc4[C@H]3CC[C@@]21C [ETHINYL ESTRADIOL]
AC50 [7]: 35.4 µM
AC50 [4]: > 30 µM
AC50 [2]: > 30 µM
AC50 [8]: > 30 µM
AC50 [5]: > 30 µM
AC50 (Progesterone receptor): > 30 µM
AC50 [3]: > 30 µM
AC50 (D(1A) dopamine receptor): > 10 µM
AC50 [6]: > 10 µM

CS(=O)(=O)c1ccc([C@@H](O)[C@@H](CO)NC(=O)C(Cl)Cl)cc1 [THIAMPHENICOL]
AC50 [2]: > 30 µM
AC50 [3]: > 50 µM

COC(=O)N[C@H](C(=O)N1CCC[C@H]1c1nc(-c2ccc(-c3ccc(-c4c[nH]c([C@@H]5CCCN5C(=O)[C@@H](NC(=O)OC)C(C)C)n4)cc3)cc2)c[nH]1)C(C)C
AC50 [3]: > 30 µM

CCOC(=O)[C@H](CCc1ccccc1)N[C@@H](C)C(=O)N1CCC[C@H]1C(=O)O
AC50 [7]: > 30 µM
AC50 [4]: > 30 µM
AC50 [8]: > 10 µM
AC50 [5]: > 30 µM
AC50 [3]: > 30 µM
AC50 (D(1A) dopamine receptor): > 10 µM
AC50 [6]: > 10 µM

CCCS(=O)(=O)Nc1ccc(F)c(C(=O)c2c[nH]c3ncc(-c4ccc(Cl)cc4)cc23)c1F [VEMURAFENIB]
AC50 [3]: > 30 µM

COC(=O)C1=C(C)NC(C)=C(C(=O)OCC(C)C)C1c1ccccc1[N+](=O)[O-] (stereo not drawn) [NISOLDIPINE]
AC50 [3]: 8.6 µM

C[C@H]1O[C@H](O[C@H]2[C@H](O)[C@@H](O)[C@@H](O[C@H]3[C@H](O)[C@@H](O)C(O)O[C@@H]3CO)O[C@@H]2CO)[C@H](O)[C@@H](O)[C@@H]1N[C@H]1C=C(CO)[C@@H](O)[C@H](O)[C@H]1O (stereo partly drawn) [ACARBOSE]
AC50 [7]: > 30 µM
AC50 [4]: > 30 µM
AC50 [2]: > 30 µM
AC50 [8]: > 10 µM
AC50 [5]: > 30 µM
AC50 (Progesterone receptor): > 30 µM
AC50 (D(1A) dopamine receptor): > 10 µM
AC50 [6]: > 10 µM

CCc1ccc(CCOc2ccc(CC3SC(=O)NC3=O)cc2)nc1 (stereo not drawn) [PIOGLITAZONE]
AC50 [7]: > 30 µM
AC50 [4]: > 30 µM
AC50 [2]: > 30 µM
AC50 [8]: > 10 µM
AC50 [5]: > 30 µM
AC50 (Progesterone receptor): > 30 µM
AC50 (D(1A) dopamine receptor): > 10 µM
AC50 [6]: > 10 µM

NC(=O)c1cnccn1 [PYRAZINAMIDE]
AC50 [7]: > 30 µM
AC50 [4]: > 30 µM
AC50 [8]: > 10 µM
AC50 [5]: > 30 µM
AC50 (Progesterone receptor): > 30 µM
AC50 (D(1A) dopamine receptor): > 10 µM
AC50 [6]: > 10 µM

CC(C)OC(=O)[C@H](C)N[P@](=O)(OC[C@H]1O[C@@H](n2ccc(=O)[nH]c2=O)[C@](C)(F)[C@@H]1O)Oc1ccccc1 [SOFOSBUVIR]
AC50 [1]: > 30 µM
AC50 [3]: > 50 µM

CCOC(=O)N[C@@H]1CC[C@@H]2[C@@H](C1)C[C@H]1C(=O)O[C@H](C)[C@H]1[C@H]2/C=C/c1ccc(-c2cccc(F)c2)cn1 [VORAPAXAR]
AC50 [1]: 26.3 µM
AC50 [3]: > 50 µM

O=C(NC[C@H]1CN(c2ccc(N3CCOCC3=O)cc2)C(=O)O1)c1ccc(Cl)s1 [RIVAROXABAN]
AC50 [1]: > 3 µM
AC50 [2]: > 30 µM
AC50 [3]: > 50 µM
